From US20260176628A1, “TARGETED EPIGENETIC EDITING AS NOVEL THERAPY FOR MALIGNANT GLIOMA” (The Regents of the University of California, priority 2022, published 2026)

Columns and labels:
MGMT = molecular target: T1, MGMT (Homo sapiens, UniProt P16455); details: Phase II clinical trial, cited from earlier work
T1 construct: host or cells: patients (clinical trial)
T1 sequence (P16455 1-207): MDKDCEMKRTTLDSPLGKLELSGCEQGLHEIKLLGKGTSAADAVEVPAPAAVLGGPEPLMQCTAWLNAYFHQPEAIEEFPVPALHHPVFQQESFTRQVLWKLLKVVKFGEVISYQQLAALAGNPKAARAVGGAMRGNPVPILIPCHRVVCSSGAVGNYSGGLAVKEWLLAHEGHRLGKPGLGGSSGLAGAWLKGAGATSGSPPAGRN

MGMT CpG island = test: Bisulfite sequencing (BiSEQ) of TA clones; type: cell-based, human; details: for location of methylated CpG sites: LN18 dCas9-DNMT3A-CD/sgRNA clones, Region 1 (sgRNA4) or Region 2 (sgRNA1, 2, 3)
Text: FIG. 2 Bisulfite sequencing of representative clones with induced methylation patterns of CpG sites at CRISPR-targeted regions within the MGMT CpG island. (a) Map of MGMT CpG island, 762 bp in length, encompassing promoter, exon 1, enhancer, and intron 1 regions. Comprehensive map of the MGMT gene with superimposed locations of Illumina probes (yellow boxes) as well as exon (salmon), intron (purple), and promoter/upstream (gray) regions. Locations of complementary sequences to the four sgRNAs are as shown. Open star, half-closed star and closed star regions indicate locations of differentially methylated Illumina probes. F1/R1 and F2/R2 indicate nested PCR primer pairs for Region 1 and Region 2, respectively. Inset: MGMT CpG island (individual CpG sites in light green) and relative locations of Region 1 and Region 2. CpG sites 22, 57, 72, and 96 indicate the specific sites flanking each region, numbered in order from 5′ to 3′ within the CpG island. Differentially methylated regions are shown (DMR1 and DMR2), located within assayed Region 1 and 2, respectively. MSP region is also shown within DMR2. Genetic regions and positions on Chromosome 10 were determined using the UCSC genome browser (GRCh37/hg19 assembly) and the 850K array probe annotation file provided by Illumina. (b) Lollipop schematic illustrating the distribution of CpG methylation sites in each representative clonal population (red circle=methylated site; gray circle=unmethylated site). Genomic DNA from LN18 cells containing either dCas9-DNMT3A/non-specific sgRNA or dCas9-DNMT3A/sgRNAs underwent sodium bisulfite treatment, followed by nested PCR amplification. Amplicons of Region 1 and Region 2 were obtained separately and used to generate individual clones for each region via TA cloning. Abbreviations for individual clone nomenclature (e.g., “4-NSC1” vs. “13-NSC1”): “4”=Region containing sgRNA4 target sequence; “13”=Region containing sgRNA 1, 2, 3 target sequences. “NSC” vs. “SgR” indicates whether clone source was transfected with non-specific sgRNA or sgRNA1, 2, 3, 4. Numbers following NSC or SgR designation indicate individual clone numbers. Each row of the schematic (per category, NSC or SgR) represents a single clone. Regional CpG sites as per Malley et al (2011): DMR1=CpG 25-50; DMR2=CpG 73-90; MSP=CpG 76-87 (MSP-F=CpG 76-80; MSP-R=CpG 84-87). Core/minimal promoter=CpG 50-62; Enhancer=CpG 82-87. […] Blue arrows indicate CpG sites that are methylated (converted from T-G to C-G). Region 1 includes the sequence targeted by sgRNA4 (s4). Region 2 includes the sequence targeted by sgRNA 1, 2 and 3 (s1, s2, s3).
Bisulfite Sequencing. DNA was isolated using DNEasy Blood & Tissue Kit (Qiagen, Catalog #69506). Bisulfite conversion was accomplished using EZ DNA Methylation-Gold (Zymo Research, Catalog #D5005) per kit protocol. Nested PCR primers were used as follows: […]
Region 1: First PCR primer pair F4/R4; second PCR pair F5/R4.
Region 2: First PCR primer pair F1/R1; second PCR pair F1/SeqR.
Sequencing reactions were performed using BigDye Terminator v3.1 Cycle Sequencing Kit (ThermoFisher, Cat #433750) with sequencing primers (R4 primer=Region 1; SeqR primer=Region 2); samples were purified by PCR Clean-Up Performa Spin Columns (EdgeBio Cat #13266) and submitted for Sanger sequencing analysis (Laragen, Culver City, CA).
TA Cloning. Sodium bisulfite-treated genomic DNA underwent nested PCR as above, for either Region 1 or 2. […]

LN18 human glioma cells [1] = test: MTT survival assay, TMZ sensitivity; type: cell-based; details: TMZ 25 μM or 100 μM, 5 days, vs DMSO
Method: FIG. 4 Effects of dCas9-DNMT3A-CD/MGMT-specific sgRNA targeted methylation on the sensitivity of glioma cells to temozolomide. […] Negative control: LN18 NSC cells. The “n” indicates the number of separate experiments performed for each cell type. Results were normalized to the average negative control treatment condition (drug vehicle DMSO). TMZ concentrations ranged from 25 µM to 100 µM. Horizontal bars for all figures represent post hoc Tukey's multiple comparisons test results for groups of interest following two-way ANOVA (“ns” indicates “p>0.05”; * indicates p<0.05; ** indicates p<0.01; *** indicates p<0.001; **** indicates p<0.0001). (a) TMZ sensitivity measured via MTT survival assays in LN18 cells co-expressing dCas9-DNMT3A-CD (d3A) and MGMT-targeting sgRNAs (sg1, 2, 3, 4) compared to NSC lines. […] MTT cell survival was calculated by subtracting […] for TMZ-treated cells (25 µM and 100 µM, 5 days) versus DMSO treatment control condition, followed by normalization to the average control condition.
Cell Survival Assays. […] Formazan product was extracted by cell lysis with DMSO (300 μL) and measured (560 nm absorbance with background subtraction of 660 nm). […]

LN18 human glioma cells [2] = test: Clonogenic assay, TMZ sensitivity; type: cell-based; details: TMZ 12 days total treatment, vs DMSO

## Nc1nc(OCc2ccccc2)c2nc[nH]c2n1 [O-6-benzylguanine]
MGMT
  clinical benefit: limited benefits
MGMT; including off-target bone marrow suppression
  toxicity: severe dose-limiting toxicities

## 5′-GGTGCGCACCGTTTGCGACT-3′ (guide (5'-GGTGCGCACCGTTTGCGACT-3'; as printed in the source, key not given here) [sgRNA1]
MGMT CpG island
  location of methylated CpG sites: CpG 77, 81-89

## 5′-AGGCGCCCTCACTTCGCCGT-3′ (guide (5'-AGGCGCCCTCACTTCGCCGT-3'; as printed in the source, key not given here) [sgRNA2]
MGMT CpG island
  location of methylated CpG sites: CpG 77, 81-89

## 5′-AGGGCATGCGCCGACCCGGT-3′ (guide (5'-AGGGCATGCGCCGACCCGGT-3'; as printed in the source, key not given here) [sgRNA4]
MGMT CpG island
  location of methylated CpG sites: CpG 22-38
MGMT CpG island; Region 1, to upstream 5′ limit of amplicon (CpG 22)
  methylation radius upstream from sgRNA: 20 bp

## 5′-CTTTGCGTCCCGACGCCCGC-3′ (guide (5'-CTTTGCGTCCCGACGCCCGC-3'; as printed in the source, key not given here) [sgRNA3]
MGMT CpG island
  location of methylated CpG sites: CpG 77, 81-89

## 5′-GTATTACTGATATTGGTGGG-3′ (chemistry not given here) [NSC]
LN18 human glioma cells [1]
  TMZ sensitivity (MTT survival): Essentially no TMZ sensitivity
LN18 human glioma cells [2]
  TMZ sensitivity (clonogenic survival): Essentially no TMZ sensitivity
